Like-named read-outs stand apart in the source and are kept apart here.
How the values were obtained:
uOR [1] = target: T1, uOR (Mus musculus, UniProt P42866); assay: β-arrestin recruitment to uOR / receptor internalization; type: cell-based; parameters: expressed in transfected cells
Text: The data provided in Tables 1A and 1B below were obtained using standard analytical techniques known to those skilled in the art. Such techniques are described in detail in C.
[…] were transiently transfected (electroporation) with combinations of cDNA for hemagglutinin (HA-N terminus)-tagged uOR, beta-arrestin2 tagged with green fluorescent protein, mouse uOR tagged at the C terminus with yellow fluorescent protein and GRK-2. […] After addition of drug, cells were visualized using confocal microscopy. Multiple cells were recorded per dish after more than four separate transfection experiments—representative cells are shown in the manuscript.
The “β-arrestin Recruitment EC50±SEM” column in Table 2 below represents the degree to which each tested compound recruited beta-arrestin to interact with uOR. As will be appreciated by those skilled in the art, EC50 refers to the concentration of a drug which induces a response halfway between the baseline and maximum after a specified exposure time. In this instance, lower values indicate greater potency of the molecule, and this is […].
As will also be understood by those skilled in the art, “Max Fold Efficacy” refers to the maximum signal/background ratio that an agonist will induce or, conversely, that an antagonist will inhibit an agonist from inducing a response. In Table 2 below, the “Max Fold Efficacy” column indicates the strength of the signal increase over the control/background measurement for uOR receptor internalization at the E.C. 50.

uOR [2] = target: T1, uOR; assay: Agonist induced ERK 1/2 phosphorylation (efficacy and potency relative to DAMGO)
[3] = maximum signal/background ratio for uOR receptor internalization at the EC50
[4] = recruitment of beta-arrestin to interact with uOR, bound given in μM, read-out: β-arrestin Recruitment EC50 ± SEM

T1 sequence (P42866 whole entry): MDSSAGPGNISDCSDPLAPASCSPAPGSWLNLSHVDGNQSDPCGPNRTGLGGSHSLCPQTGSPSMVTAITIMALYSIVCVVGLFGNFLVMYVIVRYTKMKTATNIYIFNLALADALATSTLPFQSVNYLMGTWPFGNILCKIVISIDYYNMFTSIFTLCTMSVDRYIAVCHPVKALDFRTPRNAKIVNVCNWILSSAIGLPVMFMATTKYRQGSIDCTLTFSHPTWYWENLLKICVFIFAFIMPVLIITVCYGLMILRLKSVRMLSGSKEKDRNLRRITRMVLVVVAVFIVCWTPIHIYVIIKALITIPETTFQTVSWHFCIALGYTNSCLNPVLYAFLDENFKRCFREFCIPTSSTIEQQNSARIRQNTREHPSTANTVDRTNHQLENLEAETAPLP

| Compound | EC50 (uOR [1]) [µM] | Max Fold Efficacy (uOR [1]; [3]) | EC50 (uOR [2]) [nM] | EC50 (uOR [1]; [4]) [µM] | Max Fold Efficacy (uOR [1]) |
| --- | --- | --- | --- | --- | --- |
| COC(=O)[C@@H]1C[C@H](NC(=O)c2ccccc2)C(=O)[C@H]2[C@@]1(C)CC[C@H]1C(=O)O[C@H](c3ccoc3)C[C@]21C | 9.19 ± 2.75 | 21.73 | 0.232 | – | – |
| COC(=O)[C@@H]1C[C@H](OC(=O)c2ccc(C(F)(F)F)cc2)C(=O)[C@H]2[C@@]1(C)CC[C@H]1C(=O)O[C@H](c3ccoc3)C[C@]21C | – | – | 930 | > 10 | – |
| COC(=O)[C@@H]1C[C@H](OC(=O)c2ccccc2)C(=O)[C@H]2[C@@]1(C)CC[C@H]1C(=O)O[C@H](c3ccoc3)C[C@]21C | – | 2.4 | 1110 | > 10 | – |
| COC(=O)[C@@H]1C[C@H](OC(=O)Nc2ccccc2)C(=O)[C@H]2[C@@]1(C)CC[C@H]1C(=O)O[C@H](c3ccoc3)C[C@]21C | – | – | 1200 | > 10 | – |
| COC(=O)[C@@H]1C[C@H](OC(=O)c2ccc(F)cc2)C(=O)[C@H]2[C@@]1(C)CC[C@H]1C(=O)O[C@H](c3ccoc3)C[C@]21C | – | 2.2 | 1640 | > 10 | – |
| COC(=O)[C@@H]1C[C@H](OC(=O)Nc2ccc(Cl)c(Cl)c2)C(=O)[C@H]2[C@@]1(C)CC[C@H]1C(=O)O[C@H](c3ccoc3)C[C@]21C | – | – | 1850 | > 10 | – |
| COC(=O)[C@@H]1C[C@H](OC(=O)Nc2ccc(SC(F)(F)F)cc2)C(=O)[C@H]2[C@@]1(C)CC[C@H]1C(=O)O[C@H](c3ccoc3)C[C@]21C | – | – | 2300 | > 10 | – |
| COC(=O)[C@@H]1C[C@H](OC(=O)c2ccc(OC)cc2)C(=O)[C@H]2[C@@]1(C)CC[C@H]1C(=O)O[C@H](c3ccoc3)C[C@]21C | – | 3.1 | 3500 | > 10 | – |
| COC(=O)[C@@H]1C[C@H](NC(=O)Nc2ccc(C#N)cc2)C(=O)[C@H]2[C@@]1(C)CC[C@H]1C(=O)O[C@H](c3ccoc3)C[C@]21C | – | – | 4290 | > 10 | – |
| COC(=O)[C@@H]1C[C@H](NC(=O)NS(=O)(=O)c2ccc(Cl)cc2)C(=O)[C@H]2[C@@]1(C)CC[C@H]1C(=O)O[C@H](c3ccoc3)C[C@]21C | – | – | > 10000 | > 10 | – |
| CCc1ncc(C(=O)O[C@H]2C[C@@H](C(=O)OC)[C@]3(C)CC[C@H]4C(=O)O[C@H](c5ccoc5)C[C@]4(C)[C@H]3C2=O)cn1 | – | 5.1 | 917 | > 10 | – |
| COC(=O)[C@@H]1C[C@H](OC(=O)c2cnc(C)cn2)C(=O)[C@H]2[C@@]1(C)CC[C@H]1C(=O)O[C@H](c3ccoc3)C[C@]21C | – | 1.8 | 1280 | > 10 | – |
| COC(=O)[C@@H]1C[C@H](OC(=O)Nc2ncc(C)s2)C(=O)[C@H]2[C@@]1(C)CC[C@H]1C(=O)O[C@H](c3ccoc3)C[C@]21C | – | – | 1280 | > 10 | – |
| COC(=O)[C@@H]1C[C@H](OC(=O)c2cc(C)on2)C(=O)[C@H]2[C@@]1(C)CC[C@H]1C(=O)O[C@H](c3ccoc3)C[C@]21C | – | 1.3 | 1750 | > 10 | – |
| COC(=O)[C@@H]1C[C@H](OC(=O)c2ccon2)C(=O)[C@H]2[C@@]1(C)CC[C@H]1C(=O)O[C@H](c3ccoc3)C[C@]21C | – | 1 | 3780 | > 10 | – |
| COC(=O)[C@@H]1C[C@H](OC(=O)c2nc(C)co2)C(=O)[C@H]2[C@@]1(C)CC[C@H]1C(=O)O[C@H](c3ccoc3)C[C@]21C | – | – | 5990 | > 10 | – |
| CCc1ncc(NC(=O)O[C@H]2C[C@@H](C(=O)OC)[C@]3(C)CC[C@H]4C(=O)O[C@H](c5ccoc5)C[C@]4(C)[C@H]3C2=O)cn1 | – | – | 7460 | > 10 | – |
| COC(=O)[C@@H]1C[C@H](OC(=O)Nc2ccc(C#N)cc2)C(=O)[C@H]2[C@@]1(C)CC[C@H]1C(=O)O[C@H](c3ccoc3)C[C@]21C [Formula Ia-i] | 9.85 ± 0.153 | 9.5 | 35.5 | – | – |

| Compound | EC50 (uOR [1]) [µM] | Max Fold Efficacy (uOR [1]; [3]) | EC50 (uOR [2]) [nM] | EC50 (uOR [1]; [4]) [µM] | Max Fold Efficacy (uOR [1]) |
| --- | --- | --- | --- | --- | --- |
| COC(=O)[C@@H]1C[C@H](OC(=O)Nc2ccc(C)cc2)C(=O)[C@H]2[C@@]1(C)CC[C@H]1C(=O)O[C@H](c3ccoc3)C[C@]21C [Formula Ia-ii] | – | 8.8 | 108 | > 10 | – |
| COC(=O)[C@@H]1C[C@H](OC(=O)Nc2ccc(Cl)cc2)C(=O)[C@H]2[C@@]1(C)CC[C@H]1C(=O)O[C@H](c3ccoc3)C[C@]21C [Formula Ia-iii] | – | 7.6 | 146 | > 10 | – |
| COC(=O)[C@@H]1C[C@H](OC(=O)Nc2ccc(F)cc2)C(=O)[C@H]2[C@@]1(C)CC[C@H]1C(=O)O[C@H](c3ccoc3)C[C@]21C [Formula Ia-iv] | – | 4.3 | 156 | > 10 | – |
| COC(=O)[C@@H]1C[C@H](OC(=O)Nc2ccc(OC(F)F)cc2)C(=O)[C@H]2[C@@]1(C)CC[C@H]1C(=O)O[C@H](c3ccoc3)C[C@]21C [Formula Ia-v] | – | 9.5 | 162 | > 10 | – |
| COC(=O)[C@@H]1C[C@H](OC(=O)Nc2ccc(C(F)(F)F)cc2)C(=O)[C@H]2[C@@]1(C)CC[C@H]1C(=O)O[C@H](c3ccoc3)C[C@]21C [Formula Ia-vi] | – | 5.1 | 327 | > 10 | – |
| COC(=O)[C@@H]1C[C@H](OC(=O)Nc2ccc(F)c(F)c2)C(=O)[C@H]2[C@@]1(C)CC[C@H]1C(=O)O[C@H](c3ccoc3)C[C@]21C [Formula Ia-vii] | – | 2.2 | 412 | > 10 | – |
| COC(=O)[C@@H]1C[C@H](OC(=O)Nc2ccc(Cl)cc2F)C(=O)[C@H]2[C@@]1(C)CC[C@H]1C(=O)O[C@H](c3ccoc3)C[C@]21C [Formula Ia-viii] | – | 2.3 | 522 | > 10 | – |
| COC(=O)[C@@H]1C[C@H](NC(=O)NC(=O)c2ccccc2)C(=O)[C@H]2[C@@]1(C)CC[C@H]1C(=O)O[C@H](c3ccoc3)C[C@]21C [Formula Ib-i] | – | 3.14 | 610 | > 10 | – |
| COC(=O)[C@@H]1C[C@H](OC(=O)NC(=O)c2ccccc2)C(=O)[C@H]2[C@@]1(C)CC[C@H]1C(=O)O[C@H](c3ccoc3)C[C@]21C [Formula Ib-ii] | – | 4.8 | 633 | > 10 | – |
| COC(=O)[C@@H]1C[C@H](OC(=O)Nc2csc(C)n2)C(=O)[C@H]2[C@@]1(C)CC[C@H]1C(=O)O[C@H](c3ccoc3)C[C@]21C [Formula Ic-i] | 2.07 ± 0.649 | 31.3 | 0.854 | – | – |
| COC(=O)[C@@H]1C[C@H](OC(=O)Nc2nc(C)cs2)C(=O)[C@H]2[C@@]1(C)CC[C@H]1C(=O)O[C@H](c3ccoc3)C[C@]21C [Formula Ic-ii] | – | 3.8 | 25.2 | > 10 | – |
| COC(=O)[C@@H]1C[C@H](OC(=O)Nc2cnc(C)cn2)C(=O)[C@H]2[C@@]1(C)CC[C@H]1C(=O)O[C@H](c3ccoc3)C[C@]21C [Formula Ic-iii] | – | 9.5 | 35.7 | > 10 | – |
| COC(=O)[C@@H]1C[C@H](OC(=O)Nc2cnc(C)nc2)C(=O)[C@H]2[C@@]1(C)CC[C@H]1C(=O)O[C@H](c3ccoc3)C[C@]21C [Formula Ic-iv] | – | 2.8 | 79.1 | > 10 | – |
| COC(=O)[C@@H]1C[C@H](OC(=O)Nc2cc(C)on2)C(=O)[C@H]2[C@@]1(C)CC[C@H]1C(=O)O[C@H](c3ccoc3)C[C@]21C [Formula Ic-v] | – | 2.4 | 118 | > 10 | – |
| COC(=O)[C@@H]1C[C@H](OC(=O)c2cnc(C)nc2)C(=O)[C@H]2[C@@]1(C)CC[C@H]1C(=O)O[C@H](c3ccoc3)C[C@]21C [Formula Id-i] | – | 4.2 | 2.85 | > 10 | – |
| COC(=O)[C@@H]1C[C@H](OC(=O)c2ccc(Cl)nc2)C(=O)[C@H]2[C@@]1(C)CC[C@H]1C(=O)O[C@H](c3ccoc3)C[C@]21C [Formula Id-ii] | – | 9.3 | 373 | > 10 | – |
| COC(=O)[C@@H]1C[C@H](OC(=O)c2cc(C)cs2)C(=O)[C@H]2[C@@]1(C)CC[C@H]1C(=O)O[C@H](c3ccoc3)C[C@]21C [Formula Id-iii] | – | 6.1 | 377 | > 10 | – |
| Met-Enkephalin [reference compound] | – | – | – | – | 38.3 |
